`C[C@@]1(O)[C@H](O)[C@@H](COP2(=O)OCC[C@@H](c3ccccc3Cl)O2)O[C@H]1n1ccc2c(N)ncnc21` (stereo partly drawn) [Compound 16.14, 4-amino-7-(cis-5′-O-[4-(2-chlorophenyl)-2-oxo-1,3,2-dioxaphosphorinan-2-yl]-2′-C-methyl-beta-D-ribofuranosyl)-7H-pyrrolo[2,3-d]pyrimidine] came in with a melting point of 187 to 190 °C. The compound `C[C@@]1(O)[C@H](O)[C@@H](COP2(=O)OC[C@@H](c3ccccc3)[C@@H](c3ccccc3)O2)O[C@H]1n1ccc2c(N)ncnc21` (stereo partly drawn) [Compound 16.22, 4-amino-7-(trans-5′-O-[4,5-cis-diphenyl-2-oxo-1,3,2-dioxaphosphorinan-2-yl]-2′-C-methyl-beta-D-ribofuranosyl)-7H-pyrrolo[2,3-d]pyrimidine] registered a melting point of 160 to 163 °C. The compound `C[C@@]1(O)[C@H](O)[C@@H](COP2(=O)OCC[C@@H](c3cc(Cl)ccc3Br)O2)O[C@H]1n1ccc2c(N)ncnc21` (stereo partly drawn) [Compound 16.25, 4-amino-7-(cis-5′-O-[4-(2-bromo-5-chlorophenyl)-2-oxo-1,3,2-dioxaphosphorinan-2-yl]-2′-C-methyl-beta-D-ribofuranosyl)-7H-pyrrolo[2,3-d]pyrimidine] registered a melting point of 193 to 196 °C. Consider `C[C@@]1(O)[C@H](O)[C@@H](COP2(=O)OCC[C@H](c3cc(Cl)cc(Cl)c3)O2)O[C@H]1n1ccc2c(N)ncnc21` (stereo partly drawn) [Compound 16.26, 4-amino-7-(cis-5′-O-[4-(3,5-dichlorophenyl)-2-oxo-1,3,2-dioxaphosphorinan-2-yl]-2′-C-methyl-beta-D-ribofuranosyl)-7H-pyrrolo[2,3-d]pyrimidine], for which the melting point lay in the range of 182 to 185 °C. Compound `C[C@@]1(O)[C@H](O)[C@@H](COP2(=O)OCC[C@H](c3cc(F)cc(F)c3)O2)O[C@H]1n1ccc2c(N)ncnc21` (stereo partly drawn) [Compound 16.27, 4-amino-7-(cis-5′-O-[-4-(3,5-difluorophenyl)-2-oxo-1,3,2-dioxaphosphorinan-2-yl]-2′-C-methyl-beta-D-ribofuranosyl)-7H-pyrrolo[2,3-d]pyrimidine] had a melting point of 135 to 140 °C. For `C[C@@]1(O)[C@H](O)[C@@H](CO[P@]2(=O)OCC[C@H](c3cccc(Cl)c3)O2)O[C@H]1n1ccc2c(N)ncnc21` [Compound 16.28, 4-amino-7-(cis-5′-O-[4-(R)-(3-chlorophenyl)-2-oxo-1,3,2-dioxaphosphorinan-2-yl]-2′-C-methyl-beta-D-ribofuranosyl)-7H-pyrrolo[2,3-d]pyrimidine], the melting point lay in the range of 126 to 128 °C. As for `C[C@@]1(O)[C@H](O)[C@@H](COP2(=O)OCC[C@H](c3ccccc3C(F)(F)F)O2)O[C@H]1n1ccc2c(N)ncnc21` (stereo partly drawn) [Compound 16.29, 4-amino-7-(cis-5′-O-[4-(2-trifluoromethylphenyl)-2-oxo-4,3,2-dioxaphosphorinan-2-yl]-2′-C-methyl-beta-D-ribofuranosyl)-7H-pyrrolo[2,3-d]pyrimidine], the melting point lay in the range of 115 to 120 °C.

In turn, `C[C@@]1(O)[C@H](O)[C@@H](CO[P@]2(=O)OCC[C@H](c3ccncc3)O2)O[C@H]1n1ccc2c(N)ncnc21` [Compound 16.30, 4-amino-7-(cis-5′-O-[4-(R)-(pyridin-4-yl)-2-oxo-1,3,2-dioxaphosphorinan-2-yl]-2′-C-methyl-beta-D-ribofuranosyl)-7H-pyrrolo[2,3-d]pyrimidine] registered a melting point of 132 to 136 °C. In turn, `C[C@@]1(O)[C@H](O)[C@@H](COP2(=O)OCC[C@H](c3cccnc3)O2)O[C@H]1n1ccc2c(N)ncnc21` (stereo partly drawn) [Compound 16.32] came in with a melting point of 134 to 138 °C. For the compound `C[C@@]1(O)[C@H](O)[C@@H](CO[P@]2(=O)OCC[C@H](c3ccccc3)O2)O[C@H]1n1ccc2c(N)ncnc21` [Compound 16.34], the melting point lay within 177 to 180 °C.

`C[C@@]1(O)[C@H](O)[C@@H](COP2(=O)OCC[C@H](c3ccccc3F)O2)O[C@H]1n1ccc2c(N)ncnc21` (stereo partly drawn) [Compound 16.39, 4-amino-7-(cis-5′-O-[4-(2-fluorophenyl)-2-oxo-1,3,2-dioxaphosphorinan-2-yl]-2′-C-methyl-beta-D-ribofuranosyl)-7H-pyrrolo[2,3-d]pyrimidine] yielded a melting point of 101 to 103 °C.

For `C[C@@]1(O)[C@H](O)[C@@H](COP2(=O)OC3CCCCC3[C@@H](c3ccccc3)O2)O[C@H]1n1ccc2c(N)ncnc21` (stereo partly drawn) [Compound 16.42, 4-amino-7-(cis-5′-O-[4-phenyl-5,6-tetramethylene-2-oxo-1,3,2-dioxaphosphorinan-2-yl]-2′-C-methyl-beta-D-ribofuranosyl)-7H-pyrrolo[2,3-d]pyrimidine], the melting point fell in the range of 110 to 113 °C. Then `C[C@@]1(O)[C@H](O)[C@@H](COP2(=O)OCC[C@H](c3cccc(C#N)c3)O2)O[C@H]1n1ccc2c(N)ncnc21` (stereo partly drawn) [Compound 16.43, 4-amino-7-(cis-5′-O-[4-(3-cyanophenyl)-2-oxo-1,3,2-dioxaphosphorinan-2-yl]-2′-C-methyl-beta-D-ribofuranosyl)-7H-pyrrolo[2,3-d]pyrimidine], with 157 to 160 °C. The compound `C[C@@]1(O)[C@H](O)[C@@H](COP2(=O)OCC[C@@H](c3cccc(Cl)c3)O2)O[C@H]1n1ccc2c(=O)[nH]c(N)nc21` (stereo partly drawn) [Compound 17.2, 2-amino-7-(cis-5-O-[4-(S)-(3-chlorophenyl)-2-oxo-1,3,2-dioxaphosphorinan-2-yl]-2′-C methyl-beta-D-ribofuranosyl)-7H-pyrrolo[2,3-d]pyrimidin-4(3H)-one] came in with a melting point of 175 °C. For `C[C@@]1(O)[C@H](O)[C@@H](COP2(=O)OCC[C@@H](c3cc(F)ccc3F)O2)O[C@H]1n1ccc2c(=O)[nH]c(N)nc21` (stereo partly drawn) [Compound 17.6, 2-amino-7-(cis-5′-O-[4-(2,5-difluorophenyl)-2-oxo-1,3,2-dioxaphosphorinan-2-yl]-2′-C methyl-beta-D-ribofuranosyl)-7H-pyrrolo[2,3-d]pyrimidin-4(3H)-one] the value was 170 to 173 °C; for `C[C@@]1(O)[C@H](O)[C@@H](COP2(=O)OCC[C@H](c3cc(Cl)cc(Cl)c3)O2)O[C@H]1n1ccc2c(=O)[nH]c(N)nc21` (stereo partly drawn) [Compound 17.12, 2-amino-7-(cis-5′-O-[4-(3,5-dichlorophenyl)-2-oxo-1,3,2-dioxaphosphorinan-2-yl]-2′C methyl-beta-D-ribofuranosyl)-7H-pyrrolo[2,3-d]pyrimidin-4(3H)-one], 177 to 180 °C. With `C[C@@]1(O)[C@H](O)[C@@H](CO[P@@]2(=O)OCC[C@@H](c3ccncc3)O2)O[C@H]1n1ccc2c(=O)[nH]c(N)nc21` [Compound 17.13, 2-amino-7-(cis-5-O-[4-(S)-(pyridin-4-yl)-2-oxo-1,3,2-dioxaphosphorinan-2-yl]-2-C methyl-beta-D-ribofuranosyl)-7H-pyrrolo[2,3-d]pyrimidin-4(3H)-one], the melting point lay in the range of 138 to 141 °C.

Consider `C[C@@]1(O)[C@H](O)[C@@H](COP2(=O)OCC[C@@H](c3cccc(F)c3)O2)O[C@H]1n1ccc2c(=O)[nH]c(N)nc21` (stereo partly drawn) [Compound 17.14, 2-amino-7-(cis-5′-O-[4-(3-fluorophenyl)-2-oxo-1,3,2-dioxaphosphorinan-2-yl]-2-C methyl-beta-D-ribofuranosyl)-7H-pyrrolo[2,3-d]pyrimidin-4(3H)-one], for which the melting point was determined as 170 °C.

`C[C@@]1(O)[C@H](O)[C@@H](COP2(=O)OCC[C@@H](c3ccc(F)c(Br)c3)O2)O[C@H]1n1ccc2c(=O)[nH]c(N)nc21` (stereo partly drawn) [Compound 17.15, 2-amino-7-(cis-5′-O-[4-(3-bromo-4-fluoro-phenyl)-2-oxo-1,3,2-dioxaphosphorinan-2-yl]-2′-C methyl-beta-D-ribofuranosyl)-7H-pyrrolo[2,3-d]pyrimidin-4(3H)-one]: the melting point fell in the range of 175 to 179 °C.

Turning to `C[C@@]1(O)[C@H](O)[C@@H](CO[P@]2(=O)OCC[C@H](c3ccccc3)O2)O[C@H]1n1ccc2c(=O)[nH]c(N)nc21` [Compound 17.16, 2-amino-7-(cis-5-O-[4-(R)-phenyl-2-oxo-1,3,2-dioxaphosphorinan-2-yl]-2-C methyl-beta-D-ribofuranosyl)-7H-pyrrolo[2,3-d]pyrimidin-4(3H)-one], the melting point lay in the range of 128 to 133 °C. `CO[C@@H]1COP(=O)(OC[C@H]2O[C@@H](n3ccc4c(=O)[nH]c(N)nc43)[C@](C)(O)[C@@H]2O)O[C@@H]1c1cccc(Cl)c1` (stereo partly drawn) [Compound 17.19] came in with a melting point of 148 to 151 °C. `C[C@@]1(O)[C@H](O)[C@@H](COP2(=O)OCC[C@H](c3ccccc3Br)O2)O[C@H]1n1ccc2c(=O)[nH]c(N)nc21` (stereo partly drawn) [Compound 17.21, 2-amino-7-(cis-5′-O-[4-(2-bromophenyl)-2-oxo-1,3,2-dioxaphosphorinan-2-yl]-2′-C methyl-beta-D-ribofuranosyl)-7H-pyrrolo[2,3-d]pyrimidin-4(3H)-one]: the melting point amounted to 180 °C.

On to `C[C@@]1(O)[C@H](O)[C@@H](COP2(=O)OCC[C@H](c3cc(C(F)(F)F)cc(C(F)(F)F)c3)O2)O[C@H]1n1ccc2c(=O)[nH]c(N)nc21` (stereo partly drawn) [Compound 17.23], for which the melting point fell in the range of 155 to 175 °C. Consider `C[C@@]1(O)[C@H](O)[C@@H](COP2(=O)OCC[C@H](c3cccc(C(F)(F)F)c3)O2)O[C@H]1n1ccc2c(=O)[nH]c(N)nc21` (stereo partly drawn) [Compound 17.24], for which the melting point lay in the range of 145 to 165 °C. Compound `C[C@@]1(O)[C@H](O)[C@@H](COP2(=O)OCC[C@H](c3ccc(Cl)cc3Cl)O2)O[C@H]1n1ccc2c(=O)[nH]c(N)nc21` (stereo partly drawn) [Compound 17.25, 2-amino-7-(cis-5-O-[4-(2,4-dichlorophenyl)-2-oxo-1,3,2-dioxaphosphorinan-2-yl]-2-C methyl-beta-D-ribofuranosyl)-7H-pyrrolo[2,3-d]pyrimidin-4(3H)-one] came in with a melting point of 175 °C. `C[C@@]1(O)[C@H](O)[C@@H](COP2(=O)OCCC(c3cccc(Cl)c3)O2)O[C@H]1n1cnc2c(N)ncnc21` (stereo partly drawn) [Compound 18, 5′-O-[4-(3-chlorophenyl)-2-oxo-1,3,2-dioxaphosphorinan-2-yl]-2′-C-methyladenosine] showed a melting point of 153 °C.

Turning to `C[C@@]1(O)[C@H](O)[C@@H](COP2(=O)OCC[C@@H](c3cccc(C#N)c3)O2)O[C@H]1n1cnc2c(N)ncnc21` (stereo partly drawn) [Compound 21.2, cis-5′-O-[4-(3-cyanophenyl)-2-oxo-1,3,2-dioxaphosphorinan-2-yl]-2′-C-beta-methyl-adenosine], the melting point lay in the range of 153 to 156 °C.

By melting point is commonly meant the temperature of the solid-liquid transition.

Values taken from patent US20050182252A1, “Novel 2'-C-methyl nucleoside derivatives” (priority 2004, published 2005).
